Experiments:
[1] = system: Raji cells; assay type: cell-based, human; conditions: bendamustine alone, 0-20 μM, 48 hours
Procedure: (§1) Briefly, Human Burkitt lymphoma (Raji [ATCC, cat. no. CCL-86]) and DLBCL (SU-DHL-4 [Deutsche Sammlung von Mikroorganismen and Zellkulturen—DSMZ, cat. no. ACC-495]) cell lines were used as target cells. Cells were cultured in culture medium (RPMI 1640 with HEPES and L-Glutamine supplemented with 10% heat-inactivated donor bovine serum with iron, and 1% [v/v] penicillin/streptomycin) to which 2 mM L-glutamine, and 1 mM sodium pyruvate were added, at 37° C., 5% CO2. T cells, which were isolated from human healthy donor buffy coats by negative selection using the RosetteSep™ Human T Cell Enrichment Cocktail (Stemcell Technologies) followed by density centrifugation over a Ficoll gradient, both according to the manufacturer's instructions, were used as effector cells. Isolated cells were washed twice in phosphate buffered saline (PBS) and counted using acridine orange/propidium iodide (AO/PI) viability staining solution (Nexcelom Bioscience) on a Cellometer® Auto 2000 Cell Viability Counter. […] B-cell viability and T-cell activation were measured by flow cytometry (count of CD22-positive cells; expression of the activation markers CD69, CD25, and CD107 [LAMP-1] on CD4+ and CD8+ T cells). The percentage cytotoxicity was calculated as follows: % cytotoxicity=100−([cell countsample/cell countno antibody]×100%)

[2] = system: SU-DHL-4 cells; assay type: cell-based, human; conditions: bendamustine alone, 0-20 μM, 48 hours
Procedure: as §1

[3] = system: follicular lymphoma; conditions: double-refractory cases; cited from earlier work
[4] = system: T cells in presence of Raji cells; assay: In vitro T-cell activation assay, T cells incubated with Raji cells; assay type: cell-based, human; conditions: Raji target cells
Procedure: (§2) Briefly, Human Burkitt lymphoma (Raji [ATCC, cat. no. CCL-86]) and DLBCL (SU-DHL-4 [Deutsche Sammlung von Mikroorganismen and Zellkulturen—DSMZ, cat. no. ACC-495]) cell lines were used as target cells. Cells were cultured in culture medium (RPMI 1640 with HEPES and L-Glutamine supplemented with 10% heat-inactivated donor bovine serum with iron, and 1% [v/v] penicillin/streptomycin) to which 2 mM L-glutamine, and 1 mM sodium pyruvate were added, at 37° C., 5% CO2. T cells, which were isolated from human healthy donor buffy coats by negative selection using the RosetteSep™ Human T Cell Enrichment Cocktail (Stemcell Technologies) followed by density centrifugation over a Ficoll gradient, both according to the manufacturer's instructions, were used as effector cells. Isolated cells were washed twice in phosphate buffered saline (PBS) and counted using acridine orange/propidium iodide (AO/PI) viability staining solution (Nexcelom Bioscience) on a Cellometer® Auto 2000 Cell Viability Counter. T cells (100,000 cells/well) were incubated with Raji or SU-DHL-4 cells (50,000 cells/well) in culture medium in the presence of epcoritamab (0.033 pg/mL-333 ng/mL) and bendamustine (0-20 μM) at 37° C., 5% CO2 for 48 hours. B-cell viability and T-cell activation were measured by flow cytometry (count of CD22-positive cells; expression of the activation markers CD69, CD25, and CD107 [LAMP-1] on CD4+ and CD8+ T cells). The percentage cytotoxicity was calculated as follows: % cytotoxicity=100−([cell countsample/cell countno antibody]×100%)

[5] = system: T cells in presence of SU-DHL-4 cells; assay: In vitro T-cell activation assay, T cells incubated with SU-DHL-4 cells; assay type: cell-based, human; conditions: SU-DHL-4 target cells
Procedure: as §2

[6] = system: R/R B-NHL patients; assay: Ongoing clinical trial of epcoritamab monotherapy (NCT03625037); assay type: in vivo, human; conditions: preliminary data
Excerpt: Epcoritamab as monotherapy is currently in a clinical trial for the treatment of relapsed/refractory (R/R) B-NHL (ClinicalTrials.gov Identifier: NCT03625037).

[7] = system: CD20-expressing Raji-luc tumor cells; conditions: NOD-SCID mice injected with Raji-luc tumor cells and PBMCs; even in presence of excess IgG1-RTX-FEAR; cited from earlier work
[8] = system: primary DLBCL and follicular lymphoma patient biopsies; conditions: biopsies taken a certain time after anti-CD20 antibody administration; cited from earlier work
[9] = target: T1, CD20 (Homo sapiens, UniProt P11836); conditions: rituximab versus IgG1-CD20; different epitopes; cited from earlier work
T1 sequence (P11836 1-297): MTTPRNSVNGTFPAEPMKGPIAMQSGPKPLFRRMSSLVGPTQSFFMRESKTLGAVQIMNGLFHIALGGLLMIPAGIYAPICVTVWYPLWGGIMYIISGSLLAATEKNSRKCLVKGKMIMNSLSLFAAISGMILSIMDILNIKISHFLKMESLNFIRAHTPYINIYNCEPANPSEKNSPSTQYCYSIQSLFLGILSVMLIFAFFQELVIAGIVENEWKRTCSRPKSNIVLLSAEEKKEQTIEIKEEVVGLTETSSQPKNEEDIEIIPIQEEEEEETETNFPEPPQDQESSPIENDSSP

[10] = bendamustine 0-20 μM, data not shown
[11] = epcoritamab 0.033 pg/mL-333 ng/mL, 48 hours

## Cn1c(CCCC(=O)O)nc2cc(N(CCCl)CCCl)ccc21 [bendamustine, 4-[5-[Bis(2-chloroethyl)amino]-1-methyl-1H-benzo[d]imidazole-2-yl]butanoic acid]
[1]
  number of viable B cells: decreased the number of viable B cells in a dose dependent manner
[2]
  number of viable B cells: decreased the number of viable B cells in a dose dependent manner

## CC[C@H](Nc1ncnc2[nH]cnc12)c1nc2cccc(F)c2c(=O)n1-c1ccccc1 [idelalisib]
[3]
  1-year PFS: 43%
  toxicities: several toxicities leading to treatment discontinuation

## Epcoritamab: IgG1 bispecific CD3xCD20 antibody, heavy/light chains SEQ ID NOs: 24, 25 and 26, 27; CAS 2134641-34-0
[4]; bendamustine 0-20 μM, 48 hours
  epcoritamab-induced T-cell activation in presence of bendamustine: not affected by the presence of bendamustine at all concentrations tested
[4]; [10]
  upregulation of activation markers on CD4+ T cells in presence of bendamustine: not affected by bendamustine
[4]; [11]
  activation of CD8+ T cells (CD69, CD25, LAMP-1 upregulation): induced concentration-dependent activation of CD8+ T cells
[5]; bendamustine 0-20 μM, 48 hours
  epcoritamab-induced T-cell activation in presence of bendamustine: not affected by the presence of bendamustine at all concentrations tested
[5]; [10]
  upregulation of activation markers on CD4+ T cells in presence of bendamustine: not affected by bendamustine
[5]; [11]
  activation of CD8+ T cells (CD69, CD25, LAMP-1 upregulation): induced concentration-dependent activation of CD8+ T cells
[6]
  tolerability: tolerated at doses up to at least 48 mg, including 60 mg
[7]
  tumor growth: effectively reduce tumor growth
[8]
  T-cell-mediated cytotoxicity: induced T-cell-mediated cytotoxicity

## IgG1-CD20: CD20 antibody of which the CD20 arm of epcoritamab is derived
[9]
  competition for CD20 binding: compete for CD20 binding
